Our source for the IC50 values is US8481540B2, “Inhibitors of bruton's tyrosine kinase” (Hoffmann-La Roche Inc., priority 2010, dated 2013).

The subject of the test is B cells in human blood. Nature of the test: Inhibition of B cell activation in whole blood measured by CD69 expression. It is filed as cell-based. The conditions noted are these: CD69-positive, CD20-positive cells after anti-IgM stimulation, human whole blood, 20 hours, read-out: Human Whole Blood. How it is done:
Inhibition of B Cell Activation in Whole Blood Measured by CD69 Expression
A procedure to test the ability of Btk inhibitors to suppress B cell receptor-mediated activation of B cells in human blood is as follows:
Human whole blood (HWB) is obtained from healthy volunteers, with the following restrictions: 24 hr drug-free, non-smokers. Blood is collected by venipuncture into Vacutainer tubes anticoagulated with sodium heparin. Test compounds are diluted to […] the desired starting drug concentration in PBS (20×), followed by three-fold serial dilutions in 10% DMSO in PBS to produce a nine point dose-response curve. 5.5 μl of each compound dilution is added in duplicate to a 2 ml96-well V bottom plate (Analytical Sales and Services, #59623-23); 5.5 μl of 10% DMSO in PBS is added to control and no-stimulus wells. HWB (100 μl) is added to each well, and after mixing the plates are incubated at 37 C, 5% CO2, 100% humidity for 30 minutes. Goat F(ab′)2 anti-human IgM (Southern Biotech, #2022-14) (10 μl of a […] solution, 50 μg/ml final concentration) is added to each well (except the no-stimulus wells) with mixing and the plates are incubated for an additional 20 hours.
At the end of the 20 hour incubation, samples are incubated with florescent-probe-labeled anti-bodies (15 μl PE Mouse anti-Human CD20, BD Pharmingen, #555623, and/or 20 ul APC Mouse anti-Human CD69, BD Pharmingen #555533) for 30 minutes, at 37 C, 5% CO2, 100% humidity. Included are induced control, unstained and single stains for compensation adjustments and initial voltage settings. Samples are then lysed with 1 ml of 1× Pharmingen Lyse Buffer (BD Pharmingen #555899), and plates are centrifuged at 1800 rpm for 5 minutes. Supernatants are removed via suction and the remaining pellets are lysed again with another 1 ml of 1× Pharmingen Lyse Buffer, and plates are spun down as before. Supernatants are aspirated and remaining pellets are washed in FACs buffer (PBS+1% FBS). After a final spin, the supernantants are removed and pellets are resuspended in 180 μl of FACs buffer. Samples are transferred to a 96 well plate suitable to be run on the HTS 96 well system on the BD LSR II flow cytometer.
Using appropriate excitation and emission wavelengths for the fluorophores used, data are acquired and percent positive cell values are obtained using Cell Quest Software. Results are initially analyzed by FACS analysis software (Flow Jo). […] The IC50 values are calculated using XLfit software version 3, equation 201.
Representative compound data for this assay are listed below in Table II.
With `CCN1CCn2nc(Nc3cc(-c4cccc(-n5ncc6cc(C(C)(C)C)cc(F)c6c5=O)c4CO)nn(C)c3=O)cc2C1` [I-82, 6-tert-Butyl-2-{3-[5-(5-ethyl-4,5,6,7-tetrahydro-pyrazolo[1,5-a]pyrazin-2-ylamino)-1-methyl-6-oxo-1,6-dihydro-pyridazin-3-yl]-2-hydroxymethyl-phenyl}-8-fluoro-2H-phthalazin-1-one], the IC50 is 17 nM.

As for `CN1CCC(c2ccc(Nc3cc(-c4cccc(-n5ccc6cc(C(C)(C)C#N)cc(F)c6c5=O)c4CO)nn(C)c3=O)nc2)C1` (stereo in doubt) [I-89, 2-[8-Fluoro-2-(2-hydroxymethyl-3-{1-methyl-5-[5-((S)-1-methyl-pyrrolidin-3-yl)-pyridin-2-ylamino]-6-oxo-1,6-dihydro-pyridazin-3-yl}-phenyl)-1-oxo-1,2-dihydro-isoquinolin-6-yl]-2-methyl-propionitrile], the IC50 was 485 nM.

Regarding `Cn1nc(-c2cccc(-n3ncc4cc(C(C)(C)C)cc(F)c4c3=O)c2CO)cc(Nc2ccc(C(=O)N3CCC(O)CC3)cn2)c1=O` [I-55, 6-tert-butyl-8-fluoro-2-(2-(hydroxymethyl)-3-(5-(5-(4-hydroxypiperidine-1-carbonyl)pyridin-2-ylamino)-1-methyl-6-oxo-1,6-dihydropyridazin-3-yl)phenyl)phthalazin-1(2H)-one], the IC50 came out at 41 nM.

As for `Cc1cc(Nc2cc(-c3cccc(-n4ncc5cc(C(C)(C)C)cc(F)c5c4=O)c3CO)nn(C)c2=O)nn1C` [I-31, 6-tert-Butyl-2-{3-[5-(1,5-dimethyl-1H-pyrazol-3-ylamino)-1-methyl-6-oxo-1,6-dihydro-pyridazin-3-yl]-2-hydroxymethyl-phenyl}-8-fluoro-2H-phthalazin-1-one], the IC50 came to 32 nM.

For the molecule `CN1C[C@@H]2C[C@H]1CN2c1cnc(Nc2cc(-c3cccc(-n4ncc5cc(C(C)(C)C)cc(F)c5c4=O)c3CO)nn(C)c2=O)cn1` [I-88, 6-tert-Butyl-8-fluoro-2-(2-hydroxymethyl-3-{1-methyl-5-[5((1S,4S)-5-methyl-2,5-diaza-bicyclo[2.2.1]hept-2-yl)-pyrazin-2-ylamino]-6-oxo-1,6-dihydro-pyridazin-3-yl}-phenyl)-2H-phthalazin-1-one], the IC50 was determined as 203 nM.

In the case of `Cn1nc(-c2cccc(-n3ccc4cc(C(C)(C)C#N)cc(F)c4c3=O)c2CO)cc(Nc2ccc(C(=O)N3CCOCC3)cn2)c1=O` [I-15, 2-[8-fluoro-2-(2-hydroxymethyl-3-{1-methyl-5-[5-(morpholine-4-carbonyl)-pyridin-2-ylamino]-6-oxo-1,6-dihydro-pyridazin-3-yl}-phenyl)-1-oxo-1,2-dihydro-isoquinolin-6-yl]-2-methyl-propionitrile], the IC50 worked out at 163 nM.

As for `CCN1CCC(c2ccc(Nc3cc(-c4cccc(-n5ncc6cc(C(C)(C)C)cc(F)c6c5=O)c4CO)nn(C)c3=O)nc2)CC1` [I-30, 6-tert-Butyl-2-{3-[5-(1′-ethyl-1′,2′,3′,4′,5′,6′-hexahydro-[3,4]bipyridinyl-6-ylamino)-1-methyl-6-oxo-1,6-dihydro-pyridazin-3-yl]-2-hydroxymethyl-phenyl}-8-fluoro-2H-phthalazin-1-one], the IC50 is 4 nM.

On to `Cn1nc(-c2cccc(-n3ncc4cc(C(C)(C)C)cc(F)c4c3=O)c2CO)cc(Nc2ccc(C3CCN(C4COC4)CC3)cn2)c1=O` [I-80, 6-tert-Butyl-8-fluoro-2-{2-hydroxymethyl-3-[1-methyl-5-(1′-oxetan-3-yl-1′,2′,3′,4′,5′,6′-hexahydro-[3,4]bipyridinyl-6-ylamino)-6-oxo-1,6-dihydro-pyridazin-3-yl]-phenyl}-2H-phthalazin-1-one], for which the IC50 was found to be 41 nM.

For the molecule `COC[C@H](O)COc1ccc(Nc2cc(-c3cccc(-n4ncc5cc(C(C)(C)C)cc(F)c5c4=O)c3CO)nn(C)c2=O)nc1` [I-16, 6-tert-Butyl-8-fluoro-2-(3-{5-[5-((S)-2-hydroxy-3-methoxy-propoxy)-pyridin-2-ylamino]-1-methyl-6-oxo-1,6-dihydro-pyridazin-3-yl}-2-hydroxymethyl-phenyl)-2H-phthalazin-1-one], the IC50 came to 26 nM.

For `CN1CC2(C1)CN(C(=O)c1ccc(Nc3cc(-c4cccc(-n5ncc6cc(C(C)(C)C)cc(F)c6c5=O)c4CO)nn(C)c3=O)nc1)C2` [I-50, 6-tert-butyl-8-fluoro-2-(2-(hydroxymethyl)-3-(1-methyl-5-(5-(6-methyl-2,6-diazaspiro[3.3]heptane-2-carbonyl)pyridin-2-ylamino)-6-oxo-1,6-dihydropyridazin-3-yl)phenyl)phthalazin-1(2H)-one], the IC50 stood at 86 nM.

`CN(C)C(=O)c1ccc(Nc2cc(-c3cccc(-n4ncc5cc(C(C)(C)C)cc(F)c5c4=O)c3CO)nn(C)c2=O)nc1` [I-20]: the IC50 was determined as 15 nM.

`COCCN(C)Cc1ccc(Nc2cc(-c3cccc(-n4ncc5cc(C(C)(C)C)cc(F)c5c4=O)c3CO)nn(C)c2=O)nc1` [I-44, 6-tert-Butyl-8-fluoro-2-{2-hydroxymethyl-3-[5-(5-{[(2-methoxy-ethyl)-methyl-amino]-methyl}-pyridin-2-ylamino)-1-methyl-6-oxo-1,6-dihydro-pyridazin-3-yl]-phenyl}-2H-phthalazin-1-one]: the IC50 was determined as 14 nM.

Turning to `Cn1nc(-c2cccc(-n3ncc4cc(C(C)(C)C)cc(F)c4c3=O)c2CO)cc(Nc2ccc(N3CCC(C)(O)CC3)cn2)c1=O` [I-64, 6-tert-butyl-8-fluoro-2-(3-(5-(5-(4-hydroxy-4-methylpiperidin-1-yl)pyridin-2-ylamino)-1-methyl-6-oxo-1,6-dihydropyridazin-3-yl)-2-(hydroxymethyl)-phenyl)phthalazin-1(2H)-one], the IC50 was 66 nM.

As to `Cn1nc(-c2cccc(-n3ncc4cc(C(C)(C)C)cc(F)c4c3=O)c2CO)cc(Nc2ccc(CN3CCC(C)(O)CC3)cn2)c1=O` [I-85, 6-tert-Butyl-8-fluoro-2-(2-hydroxymethyl-3-{5-[5-(4-hydroxy-4-methyl-piperidin-1-ylmethyl)-pyridin-2-ylamino]-1-methyl-6-oxo-1,6-dihydro-pyridazin-3-yl}-phenyl)-2H-phthalazin-1-one], the IC50 is 294 nM.

As to `Cn1nc(-c2cccc(-n3ncc4cc(C(C)(C)C)cc(F)c4c3=O)c2CO)cc(Nc2ccc(C3CCNCC3)cn2)c1=O` [I-61, 6-tert-butyl-8-fluoro-2-(2-(hydroxymethyl)-3-(1-methyl-6-oxo-5-(5-(piperidin-4-yl)pyridin-2-ylamino)-1,6-dihydropyridazin-3-yl)phenyl)phthalazin-1(2H)-one], the IC50 is 74 nM.

As to `Cn1nc(-c2cccc(-n3ncc4cc(C(C)(C)C)cc(F)c4c3=O)c2CO)cc(Nc2ccc(C3CCN(S(C)(=O)=O)CC3)cn2)c1=O` [I-62, 6-tert-butyl-8-fluoro-2-(2-(hydroxymethyl)-3-(1-methyl-5-(5-(1-(methylsulfonyl)-piperidin-4-yl)pyridin-2-ylamino)-6-oxo-1,6-dihydropyridazin-3-yl)phenyl)phthalazin-1(2H)-one], the IC50 is 144 nM.

`CC(C)N1CCC(c2ccc(Nc3cc(-c4cccc(-n5ncc6cc(C(C)(C)C)cc(F)c6c5=O)c4CO)nn(C)c3=O)nc2)CC1` [I-29, 6-tert-Butyl-8-fluoro-2-{2-hydroxymethyl-3-[5-(1′-isopropyl-1′,2′,3′,4′,5′,6′-hexahydro-[3,4′]bipyridinyl-6-ylamino)-1-methyl-6-oxo-1,6-dihydro-pyridazin-3-yl]-phenyl}-2H-phthalazin-1-one]: the IC50 was 15 nM.

As for `CN1CC2(C1)CN(c1ccc(Nc3cc(-c4cccc(-n5ncc6cc(C(C)(C)C)cc(F)c6c5=O)c4CO)nn(C)c3=O)nc1)C2` [I-22, 6-tert-butyl-8-fluoro-2-(2-hydroxymethyl-3-{1-methyl-5-[5-(6-methyl-2,6-diaza-spiro[3.3]hept-2-yl)-pyridin-2-ylamino]-6-oxo-1,6-dihydro-pyridazin-3-yl}-phenyl)-2H-phthalazin-1-one], the IC50 worked out at 33 nM.

On to `Cn1nc(-c2cccc(-n3ncc4cc(C(C)(C)C)cc(F)c4c3=O)c2CO)cc(Nc2ccc(S(=O)(=O)CCO)cn2)c1=O` [I-26, 6-tert-Butyl-8-fluoro-2-(3-{5-[5-(2-hydroxyethanesulfonyl)-pyridin-2-ylamino]-1-methyl-6-oxo-1,6-dihydro-pyridazin-3-yl}-2-hydroxymethyl-phenyl)-2H-phthalazin-1-one], for which the IC50 is 152 nM.
